Test results from ChEMBL document CHEMBL1121895, “Pyrazolodiazepines. 3. 4-Aryl-1,6,7,8-tetrahydro-1,3-dialkylpyrazolo[3,4-e][1,4]diazepines as antidepressant agents” (1981).

Legend:
Type in all cases: functional
Rattus norvegicus [1] = organism: Rattus norvegicus; assay: Time-related potentiation of methamphetamine-induced anorexia in rats at the lowest active dose.; conditions: read-out: MED
Rattus norvegicus [2] = organism: Rattus norvegicus; assay: Potentiation of Methamphetamine effect for intracranial self stimulation(SS) in rats
Rattus norvegicus [3] = assay: Amount of milk ingested after the 120 min methamphetamine-challenges, produced by the compound at 2.5 mg/kg in fasted rats
Rattus norvegicus [4] = assay: Amount of milk ingested after the 15 min methamphetamine-challenges, produced by the compound at 10 mg/kg in fasted rats
Rattus norvegicus [5] = assay: Amount of milk ingested after the 120 min methamphetamine-challenges, produced by the compound at 0.625 mg/kg in fasted rats
Rattus norvegicus [6] = assay: Amount of milk ingested after the 15 min methamphetamine-challenges, produced by the compound at 0.625 mg/kg in fasted rats
Rattus norvegicus [7] = assay: Amount of milk ingested after the 120 min methamphetamine-challenges, produced by the compound at 1.25 mg/kg in fasted rats
Rattus norvegicus [8] = assay: Amount of milk ingested after the 15 min methamphetamine-challenges, produced by the compound at 2.5 mg/kg in fasted rats
Rattus norvegicus [9] = assay: Amount of milk ingested after the 15 min methamphetamine-challenges, produced by the compound at 1.25 mg/kg in fasted rats
Rattus norvegicus [10] = assay: Amount of milk ingested after the 120 min methamphetamine-challenges, produced by the compound at 10 mg/kg in fasted rats
Rattus norvegicus [11] = assay: Amount of milk ingested after the 15 min methamphetamine-challenges, produced by the compound at 5 mg/kg in fasted rats
Rattus norvegicus [12] = assay: Amount of milk ingested after the 120 min methamphetamine-challenges, produced by the compound at 5 mg/kg in fasted rats
Rattus norvegicus [13] = assay: Amount of milk ingested after the 15 min methamphetamine-challenges, produced by the compound at 0.312 mg/kg in fasted rats
Rattus norvegicus [14] = assay: Amount of milk ingested after the 120 min methamphetamine-challenges, produced by the compound at 0.312 mg/kg in fasted rats

SMILES | minimal effective dose (Rattus norvegicus [1]) [mg/kg] | also measured
Cc1nn(C)c2c1C(c1cccc(Cl)c1C)=NCCN2 | 1.25 | Dose (Rattus norvegicus [2]): 5 mg/kg
CN(C)CCCN1c2ccccc2CCc2ccccc21 [IMIPRAMINE] | 2.5 | Amount (Rattus norvegicus [3]): 2.2 mL; Amount (Rattus norvegicus [4]): 0 mL; Amount (Rattus norvegicus [5]): 3.3 mL; Amount (Rattus norvegicus [6]): 4 mL; Amount (Rattus norvegicus [7]): 4.8 mL; Amount (Rattus norvegicus [8]): 3.3 mL; Dose (Rattus norvegicus [2]): 1.25 mg/kg; Amount (Rattus norvegicus [9]): 2.7 mL; Amount (Rattus norvegicus [10]): 0 mL; Amount (Rattus norvegicus [11]): 0.5 mL; Amount (Rattus norvegicus [12]): 0.1 mL
Cc1nn(C)c2c1C(c1cccc(F)c1)=NCCN2 | 2.5 | Dose (Rattus norvegicus [2]): 2.5 mg/kg
CCc1nn(C)c2c1C(c1cccc(Br)c1)=NCCN2 | 1.25 | Dose (Rattus norvegicus [2]): 5 mg/kg
CCc1nn(C)c2c1C(c1cccc(F)c1)=NCCN2CCCN(C)C | > 10 | 
CCn1nc(C)c2c1NCCN=C2c1cccc(C(F)(F)F)c1 | 0.63 | 
Cc1cccc(C2=NC(C)(C)CNc3c2c(C)nn3C)c1 | > 10 | 
CCc1nn(C)c2c1C(c1cccc(F)c1)=NCCN2 | 2.5 | 
Cc1nn(C)c2c1C(c1ccccc1)=NC(C)C(C)N2 (stereo unspecified) | 10 | 
Cc1nn(C)c2c1C(c1cccc(Cl)c1)=NCCN2 [ZOMETAPINE] | 0.63 | Amount (Rattus norvegicus [13]): 4.2 mL; Amount (Rattus norvegicus [3]): 0.2 mL; Amount (Rattus norvegicus [4]): 0 mL; Amount (Rattus norvegicus [5]): 0.5 mL; Amount (Rattus norvegicus [14]): 3.6 mL; Amount (Rattus norvegicus [6]): 1.1 mL; Amount (Rattus norvegicus [7]): 0.2 mL; Amount (Rattus norvegicus [8]): 0 mL; Dose (Rattus norvegicus [2]): 1.25 mg/kg; Amount (Rattus norvegicus [9]): 1.7 mL; Amount (Rattus norvegicus [10]): 0.1 mL; Amount (Rattus norvegicus [11]): 0.1 mL; Amount (Rattus norvegicus [12]): 0.1 mL
Cc1nn(C)c2c1C(c1cccc(Cl)c1)=NC(C)(C)CN2 | 2.5 | Dose (Rattus norvegicus [2]): 10 mg/kg
Cc1nn(C)c2c1C(c1ccccc1Cl)=NCCN2 | 2.5 | 
Cc1nn(C)c2c1C(c1cccc(O)c1)=NCCN2 | 2.5 | Dose (Rattus norvegicus [2]): 10 mg/kg
Cc1ccc(C)c(C2=NCCNc3c2c(C)nn3C)c1 | > 10 | 
Cc1nn(C)c2c1C(c1ccccc1)=NCCN2CCCN(C)C | > 10 | 
Cc1nn(C)c2c1C(c1ccccc1Cl)=NCC(C#N)N2 (stereo unspecified) | > 10 | 
Cc1nn(C)c2c1C(c1ccc(O)cc1)=NCCN2C | 2.5 | Dose (Rattus norvegicus [2]): 5 mg/kg
Cc1nn(C)c2c1C(c1cccc(N=[N+]=[N-])c1)=NCCN2 | 2.5 | 
Cc1nn(C)c2c1C(c1ccccc1)=NCC1CCCCN21 (stereo unspecified) | 5 | 
Cc1nn(C)c2c1C(c1ccccc1)=NCCN2.Cl | 2.5 | 
Cc1nn(C)c2c1C(c1ccccc1Cl)=NCCN2CCCN(C)C | > 10 | 
Cc1nn(C)c2c1C(c1cccc(Cl)c1)=NCCN2N=O | 1.25 | 
Cc1nn(C)c2c1C(c1ccc(Cl)c(Cl)c1)=NCCN2 | 2.5 | 
Cc1nn(C)c2c1C(c1cccc(Cl)c1)=NCCN2CCCN(C)C | > 10 | 
Cc1nn(C)c2c1C(c1ccccc1Cl)=NCCN2C | 2.5 | 

SMILES | minimal effective dose (Rattus norvegicus [1]) [mg/kg] | also measured
Cc1cc(C)cc(C2=NCCNc3c2c(C)nn3C)c1 | > 10 | 
CC(=O)N1CCN=C(c2cccc(Cl)c2)c2c(C)nn(C)c21 | > 10 | 
Cc1nn(C)c2c1C(c1cccc(N)c1)=NCCN2 | 2.5 | 
CCc1nn(C)c2c1C(c1cccc(C)c1)=NCCN2 | 5 | 
Cc1n[nH]c2c1C(c1cccc(Cl)c1)=NCCN2 | 2.5 | 
Cc1cccc(C2=NCCNc3c2c(C)nn3C)c1 | 2.5 | Dose (Rattus norvegicus [2]): 10 mg/kg
Cc1nn(C)c2c1C(c1cccc([N+](=O)[O-])c1)=NCCN2 | 5 | 
CCN1CCN=C(c2cccc(Cl)c2)c2c(C)nn(C)c21 | 0.63 | 
Cc1nn(C)c2c1C(c1cccc(Cl)c1)=NCCN2C | 0.63 | 
Cc1cccc(C2=NCCN(CCCN(C)C)c3c2c(C)nn3C)c1 | > 10 | 
COc1ccc(C2=NCCNc3c2c(C)nn3C)cc1 | > 10 | 
Cc1ccc(C2=NCCNc3c2c(C)nn3C)cc1 | 2.5 | 
CCn1nc(C)c2c1N(C)CCN=C2c1ccccc1Cl | 5 | Dose (Rattus norvegicus [2]): >10 mg/kg
Cc1nn(C)c2c1C(c1cccc(Cl)c1)=NCC1CCCCN21 (stereo unspecified) | 2.5 | 
Cc1nn(C)c2c1C(c1cccc(Cl)c1)=NCCN2CCN1CCCC1 | > 10 | 
Cc1nn(C)c2c1C(c1cccc(F)c1)=NCCN2CCCN(C)C | > 10 | 
Cc1nn(C)c2c1C(c1cccc(C(F)(F)F)c1)=NCCN2 | 0.63 | Dose (Rattus norvegicus [2]): 1.25 mg/kg
Cc1nn(C)c2c1C(c1cccc(Cl)c1)=NC(C)CN2 (stereo unspecified) | 0.63 | 
Cc1nn(C)c2c1C(c1ccc(Cl)cc1)=NCCN2 | 2.5 | 
Cc1nn(C)c2c1C(c1ccccc1)=NCCN2C | 2.5 | Dose (Rattus norvegicus [2]): >10 mg/kg
Cc1ccc(C2=NCCN(CCCN(C)C)c3c2c(C)nn3C)cc1 | > 10 | 
Cc1nn(C)c2c1C(c1cccc(Cl)c1)=[N+]([O-])CCN2 | > 10 | 
COc1cc(OC)cc(C2=NCCNc3c2c(C)nn3C)c1 | 2.5 | Dose (Rattus norvegicus [2]): 10 mg/kg
Cc1nn(C)c2c1C(c1cccc(Br)c1)=NCCN2 | 0.63 | Dose (Rattus norvegicus [2]): 5 mg/kg
Cc1nn(C)c2c1C(c1cccc(C#N)c1)=NCCN2 | 1.25 | 
